Drawing on ChEMBL document CHEMBL1154323, “Bioactive scalaranes from the Thai sponge Hyrtios gumminae” (J Nat Prod, 2009), this text covers IC50 and Activity for eight compounds.

Activity calls are given as the source filed them. No cut-off for these calls is given here. Bounds are passed on as bounds.

Common to all, as to assay type: functional, cell-based
Experiment [1] concerns NCI-H69. Kind of experiment: Cytotoxicity against human adriamycin resistant H69 cells.
The subject of experiment [2] is MDA-MB-231. Kind of experiment: Cytotoxicity against human MDA-MB-231 cells.
The subject of experiment [3] is KB. Kind of experiment: Cytotoxicity against human KB cells.
In experiment [4] the test system is T47D. Put plainly: Cytotoxicity against human T47D cells.
Experiment [5] can be described thus: Cytotoxicity against human HuCCa1 cells. As to conditions: HuCC-A1.
In experiment [6] the test system is HeLa. Put plainly: Cytotoxicity against human HeLa cells.
Experiment [7] concerns HeLa. Kind of experiment: Cytotoxicity against human HeLa cells >100 uM.
For experiment [8], the system named is MDA-MB-231. Kind of experiment: Cytotoxicity against human MDA-MB-231 cells >100 uM.
The subject of experiment [9] is KB. Put plainly: Cytotoxicity against human KB cells >100 uM.
Experiment [10] relates to NCI-H69. Kind of experiment: Cytotoxicity against human adriamycin resistant H69 cells >100 uM.
The next experiment concerns HuCC-A1. Kind of experiment: Cytotoxicity against human HuCCa1 cells at >100 uM.
For experiment [11], the system named is T47D. Put plainly: Cytotoxicity against human T47D cells >100 uM.

In general, IC50 refers to the point on the concentration scale where inhibition reaches its midpoint. `CC1(C)CCC[C@]2(C)[C@H]3C[C@@H](O)[C@]4(C)[C@H]5COC(=O)C5=CC[C@H]4[C@]3(C)CC[C@@H]12`: the IC50 in the experiment on NCI-H69 [1] stood at 57 µM; in the experiment on MDA-MB-231 [2], 5.9 µM; in the experiment on KB [3] it was 7 µM; in the experiment on T47D [4], 5.2 µM; in experiment [5], 42 µM; in the experiment with HeLa [6], 23 µM.

On to `CC(C)CCC[C@@H](C)[C@H]1CC[C@H]2[C@@H]3CC=C4C[C@@H](O)CC[C@]4(C)[C@H]3CC[C@]12C`, for which the outcome with HeLa [7], in the experiment with MDA-MB-231 [8], in the experiment on KB [9], in the experiment with NCI-H69 [10], with HuCC-A1 and in the experiment on T47D [11] was inactive.

As to `CC1(C)CCC[C@]2(C)[C@H]3C[C@@H](O)[C@]4(C)C5=C(CC[C@H]4[C@]3(C)CC[C@@H]12)COC5=O`, the outcome with HeLa [7], in the experiment on MDA-MB-231 [8], in the experiment on KB [9], in the experiment on NCI-H69 [10], in the experiment on HuCC-A1 and with T47D [11] was inactive.

As for `COc1cc([C@@H]2c3cc4c(cc3[C@@H](O[C@@H]3O[C@@H]5CO[C@@H](C)O[C@H]5[C@H](O)[C@H]3O)[C@H]3COC(=O)[C@H]23)OCO4)cc(OC)c1O` [ETOPOSIDE], the IC50 worked out at 46 µM in the experiment with NCI-H69 [1]; 0.3 µM in the experiment with MDA-MB-231 [2]; 0.5 µM with KB [3]; 0.1 µM in the experiment with T47D [4]; 5.1 µM in [5]; 0.4 µM with HeLa [6].

`CC1(C)CCC[C@]2(C)[C@H]3C[C@@H](O)[C@]4(C)C5=C(C(=O)O[C@H]5O)[C@H](O)C[C@H]4[C@]3(C)CC[C@@H]12` [HYRTIOLIDE]: the IC50 turned out to be 26 µM in the experiment on MDA-MB-231 [2]; 12 µM in the experiment on KB [3]; 34 µM with T47D [4]; 57 µM in [5]; 22 µM in the experiment with HeLa [6].

As for `CC1(C)CCC[C@]2(C)[C@H]3C[C@](C)(C=O)[C@@H](C[C@H](O)c4ccoc4)[C@]3(C)CC[C@@H]12` [HYRTIOSAL], the IC50 in the experiment with NCI-H69 [1] turned out to be 31 µM; in the experiment with MDA-MB-231 [2], 5.4 µM; in the experiment on KB [3], 7.8 µM; in the experiment with T47D [4], 9.1 µM; in experiment [5], 9.1 µM; in the experiment with HeLa [6], 18 µM.

With `CC(=O)O[C@H]1C[C@H]2[C@]3(C)CC[C@H]4C(C)(C)CCC[C@]4(C)[C@H]3C[C@@H](O)[C@]2(C)c2cocc21` [SCALARAFURAN], the IC50 amounted to 51 µM in the experiment with NCI-H69 [1]; 14 µM in the experiment on MDA-MB-231 [2]; 58 µM in the experiment with KB [3]; 28 µM in the experiment with T47D [4]; 49 µM in [5]; 63 µM in the experiment on HeLa [6].

Consider `CO[C@@H]1c2occc2[C@@H](O)C[C@H]2[C@]3(C)CC[C@H]4C(C)(C)CCC[C@]4(C)[C@H]3C[C@@]21C` [SIMILAN A], for which the IC50 with NCI-H69 [1] was more than 125 µM; in the experiment with MDA-MB-231 [2], 58 µM; with KB [3], 75 µM; in the experiment with T47D [4], 70 µM; in experiment [5], 90 µM; in the experiment on HeLa [6], 125 µM.
